The test system of series [1] is HEK cells. The series can be described thus: Confocal fluorescence imaging of H2O2 in live HEK cells. Conditions: for cell viability during imaging: HEK cells after probe incubation and H2O2 treatment; for intracellular background fluorescence of the unreacted probe: live HEK cells, 5-10 μM probe, 5-10 min at 25° C., before H2O2; for intracellular fluorescence change upon addition of H2O2: probe-loaded live HEK cells, 10-100 μM H2O2. The method, then: (a) Fluorescence image of HEK cells incubated with 5 μM PF1 for 5 min at 25° C. (b) Fluorescence image of PF1-stained HEK cells treated with 100 μM H2O2 for 11 min at 25° C. Excitation was provided at 488 nm, and emission was collected in a window from 505 to 580 nm. Scale bar=27 μm.
(a) Fluorescence image of HEK cells incubated with 10 μM PR1 for 10 min at 25° C. (b) Fluorescence image of PR1-stained HEK cells treated with 100 μM H2O2 for 30 min at 25° C. Excitation was provided at 543 nm, and emission was collected in a window from 548 to 644 nm. Scale bar=18 μm.
HEK 293T cells were cultured in Dulbecco's Modified Eagle Medium (DMEM, Invitrogen, Carlsbad, Calif.) supplemented with 10% Fetal Bovine Serum (FBS, Invitrogen), glutamine (2 mM), and penicillin/streptomycin (50 μg/ml, Invitrogen). One day before imaging, cells were passed and plated on 18-mm glass coverslips coated with poly-L-lysine (50 μg/ml, Sigma, St. Louis, Mo.). Immediately before the experiments, cells were washed with PBS buffer, incubated with the probe in PBS, and imaged.
Confocal fluorescence imaging was performed with a Zeiss LSM510 META laser scanning microscope containing an Axioplan 2 MOT upright microscope and a 40× water-immersion objective lens. Excitation of PF1-loaded cells at 488 nm was carried out with an argon ion laser, and emission was collected in a window from 505 nm to 580 nm using a META detection system. Excitation of PR1-loaded cells at 543 nm was carried out with a HeNe laser, and emission was collected in a window from 548 nm to 644 nm using a META detector. PF1 or PR1 were incubated with live cell samples for 5 to 10 min. Addition of H2O2 (10 to 100 μM) to cell samples was performed directly on the microscope stage by bath application to the media.
The family of red-, green-, and blue-fluorescent reagents for the optical detection of H2O2 in living biological samples.

Series [2] has as its system embryonic rat hippocampal neurons (E18). The series can be described thus: Fluorescence imaging of H2O2 in primary hippocampal neurons. The format is cell-based. The method, then:
Hippocampal primary cultures were prepared from embryonic day 18 (E18) rat embryos according to a previously reported protocol. Briefly, hippocampi were dissociated by treatment with trypsin for 20 min at 37° C. followed by washing. The neuronal cells were plated on glass coverslips (Carolina Biological, Burlington, N.C.) coated with poly-L-lysine (50 μg/ml, Sigma) and cultured in neurobasal medium supplemented with 2 mM Glutamax and 2% B-27 (Invitrogen). After 10 days in vitro, the cultures were washed with PBS, incubated with the probe in PBS, and imaged.
Finally, the successful use of the Peroxysensor probes for monitoring changes in intracellular H2O2 concentrations in mammalian cell lines using either confocal or two-photon microscopy led us to evaluate their utility in primary culture systems. […] Control neurons without PF1 and/or H2O2 treatment show no detectable fluorescence enhancements. These experiments confirm that PF1 can be used in living neurons to detect oxidative stress events.

Series [3] can be described thus: Fluorescence response to various ROS (H2O2 selectivity). Conditions: 20 mM HEPES, pH 7, 25° C.; for higher response for H2O2 over .OH: .OH from Fe2+ with H2O2; for higher response for H2O2 over .OtBu: .OtBu from Fe2+ with TBHP; for higher response for H2O2 over NO: NO delivered using SNOC. The method, then:
FIG. 7 is the fluorescence response of 5 μM PF1 to various ROS (10 mM O2^−, 100 μM for all other ROS). .OH and .Ot-Bu were generated by reaction of Fe^2+ with H2O2 or tert-butyl hydroperoxide (TBHP), respectively. NO was delivered using S-nitrosocysteine (SNOC). Spectra were acquired in 20 mM HEPES, pH 7, and all data were obtained after incubation with the appropriate ROS at 25° C. for 1 h. Collected emission was integrated between 460 and 700 nm (λexc=450 nm).
FIG. 8 is the fluorescence response of 5 μM PR1 to various ROS (10 mM O2^−, 100 μM for all other ROS). .OH and .O^tBu were generated by reaction of Fe^2+ with H2O2 or tert-butyl hydroperoxide (TBHP), respectively. NO was delivered using S-nitrosocysteine (SNOC). Spectra were acquired in 20 mM HEPES, pH 7, and all data were obtained after incubation with the appropriate ROS at 25° C. for 30 min. Collected emission was integrated between 570 and 800 nm (λexc=560 nm).
FIG. 9 is the fluorescence response of 10 μM PX1 to various ROS (10 mM O2^−, 100 μM for all other ROS). .OH and .Ot-Bu were generated by reaction of Fe^2+ with H2O2 or tert-butyl hydroperoxide (TBHP), respectively. NO was delivered using S-nitrosocysteine (SNOC). Spectra were acquired in 20 mM HEPES, pH 7, and all data were obtained after incubation with the appropriate ROS at 25° C. for 1 h. Collected emission was integrated between 370 and 600 nm (λexc=350 nm).
(§1) Millipore water was used to prepare all aqueous solutions. All spectroscopic measurements were performed in 20 mM HEPES buffer, pH 7. Absorption spectra were recorded using a Varian Cary 50 spectrophotometer (Walnut Creek, Calif.). Fluorescence spectra were recorded using a Photon Technology International Quanta Master 4 L-format scanning spectrofluorometer (Lawrenceville, N.J.) equipped with an LPS-220B 75-W xenon lamp and power supply, A-1010B lamp housing with integrated igniter, switchable 814 photon-counting/analog photomultiplier detection unit, and MD5020 motor driver. Samples for absorption and fluorescence measurements were contained in 1-cm×1-cm quartz cuvettes (1.4- or 3.5-mL volume, Starna, Atascadero, Calif.).
FIG. 7, FIG. 8 and FIG. 9 compare the relative reactivities of boronate-based PF1, PR1, and PX1, respectively, toward various ROS.

A short description of series [4]: Spectroscopic properties under simulated physiological conditions. It is filed as physicochemical. Conditions: 20 mM HEPES buffer; for fluorescence of unreacted probe: pH 7, before H2O2. The procedure: as §1
(§2) The Peroxysensor reagents were evaluated under simulated physiological conditions (20 mM HEPES buffer, pH 7). […] FIG. 4, FIG. 5 and FIG. 6 show the fluorescence responses of PF1, PR1, and PX1, respectively, to H2O2.

The conditions of series [5]: comparison probe; cited from earlier work.
A short description of series [6]: Fluorescence response of the Peroxysensor probes to H2O2 in buffer. The settings on record: 20 mM HEPES buffer, pH 7; H2O2 addition. The procedure: as §1, §2
In series [7] the test system is HEK cells. The series is described as follows: Two-photon fluorescence imaging of H2O2 in live HEK cells. It is filed as cell-based. The method, then:
Two-photon excitation was provided at 704 nm, and emission was collected in a window from 420 to 500 nm. Scale bar=18 μm
Two-photon fluorescence imaging of PX1 was carried out using an inverted Zeiss LSM510 Axiovert 200M microscope with a NeoFLUAR 40x/1.3 NA oil-immersion objective lens. Samples were excited by 704-nm pulses from a mode-locked Ti:Sapphire laser (Tsunami, SpectraPhysics, 120-150 fs pulse width, 80 MHz repetition rate). The emission light was filtered with a 80-nm wide bandpass filter centered at 460 nm (460BP40, Chroma) and detected with the non-descanned detector (NDD) of the LSM510.
Alternative methods were explored for applying the blue-fluorescent PX1 reporter toward intracellular H2O2 detection, reasoning that its short ultraviolet excitation maximum (˜350 nm) would promote interfering absorbance, scattering, and background autofluorescence from native cellular species. […] Whereas one-photon fluorescence microscopy uses a single photon to excite a fluorophore into its excited state, two-photon fluorescence microscopy uses two photons of lower energy light to generate a fluorophore excited state. […] Control cells without probe give the same fluorescence response, establishing that the observed background signal is from endogenous cellular species.

With `CC1(C)OB(c2ccc3c(c2)Oc2cc(B4OC(C)(C)C(C)(C)O4)ccc2C32OC(=O)c3ccccc32)OC1(C)C` [PF1, 3′,6′-Bis(pinacolatoboron)fluoran], in series [1], the “cell viability during imaging” value is “cells are viable throughout the imaging experiments”, the “intracellular background fluorescence of the unreacted probe” value (from here on “intracellular background fluorescence”) was “negligible intracellular background fluorescence” and the “intracellular fluorescence change upon addition of H2O2” value is reported as “prompt increases in intracellular green fluorescence”. Also, in series [2] (10 μM probe, 5 min at 25° C.), the “background fluorescence of the unreacted probe” value is given as “negligible background fluorescence”. The “intracellular fluorescence change under simulated oxidative stress” value in series [2] (300 μM H2O2 for 30 min at 25° C.) is on record as “notable increases in intracellular fluorescence”. In addition, in series [3] (100 μM ROS), the “higher response for H2O2 over .OH” value is more than 3 fold and the “higher response for H2O2 over .OtBu” value is on record as more than 15 fold. For the same compound, the “fluorescence of unreacted probe” value in series [4] is given as “non-fluorescent”.
Take `CC1(C)OB(c2ccc3c(c2)Oc2cc(B4OC(C)(C)C(C)(C)O4)ccc2N3)OC1(C)C` [PR1, 3,7-Bis(pinacolatoboron)phenoxazine]: in series [1], the “cell viability during imaging” value is recorded as “cells are viable throughout the experiments”, the “intracellular background fluorescence” value is listed as “virtually no background fluorescence” and the “intracellular fluorescence change upon addition of H2O2” value is “Striking increases in intracellular red fluorescence”. Moreover, in series [3] (100 μM ROS), the “higher response for H2O2 over .OH” value is given as more than 200 fold, the “higher response for H2O2 over .OtBu” value is given as more than 200 fold and the “higher response for H2O2 over NO” value was more than 200 fold. Also, the “higher response for H2O2 over O2−” value in series [3] (10 mM O2−, 100 μM H2O2) is more than 1000 fold. The “fluorescence of unreacted probe” value in series [4] is reported as “non-fluorescent”.
For `O=C(O)c1ccccc1C1c2cc(Cl)c(O)cc2Oc2cc(O)c(Cl)cc21` [DCFH, 2′,7′-dichlorodihydrofluorescein], in series [5], the “fluorescence increase by reaction with .OH or peroxynitrite (ONOO−)” value is “ca. 7000 fold”, the “fluorescence increase upon addition of H2O2” value is 190 fold, the “fluorescence increase upon light-induced autoxidation” value was 2000 fold and the “fluorescence increase with NO” value is listed as 150 fold. In addition, in series [5], the “fluorescence increase with O2−” value was 67 fold.
On to `CC1(C)OB(c2ccc3c(=O)c4ccc(B5OC(C)(C)C(C)(C)O5)cc4oc3c2)OC1(C)C` [PX1, 3,6-Bis(pinacolatoboron)xanthone], for which the “increase in integrated fluorescence intensity (dynamic range) upon reaction with H2O2” value in series [6] worked out at 52 fold. Moreover, in series [3] (100 μM ROS), the “higher response for H2O2 over NO” value is on record as “ca. 6 fold” and the “higher response for H2O2 over tert-butyl hydroperoxide (TBHP)” value is reported as more than 100 fold. In series [4] (pH 7), the “emission maximum of unreacted probe” value is given as 400 nm and the ultraviolet absorption maximum is given as 350 nm. In addition, the “fluorescence of unreacted probe” value in series [4] is recorded as “weak fluorescence”. For the same compound, in series [4] (pH 7, 350 nm), the “extinction coefficient ε at absorption maximum” value is 4700 M⁻¹ cm⁻¹. For the same compound, in series [7] (live HEK cells, 10 μM probe, 2-3 min at 25° C., two-photon excitation 704 nm), the “intracellular background fluorescence” value is “minimal intracellular background fluorescence”. Further, the “intracellular fluorescence change upon addition of H2O2” value in series [7] (probe-stained HEK cells, 100 μM H2O2, two-photon excitation 704 nm) was “Prompt increases in intracellular blue fluorescence”.
